Measurements taken from patent US20180368404A1, “3-PYRIDYL HETEROBICYCLIC COMPOUND FOR CONTROLLING INVERTEBRATE PESTS” (BASF SE, priority 2014, published 2018).

Experiments:
Assay type in all cases: in vivo
[1] = system: Cowpea Aphid (Aphis craccivora); assay: Cowpea aphid spray test on potted cowpea plants; conditions: population reduction assessed after 24, 72 and 120 hours, read-out: mortality in comparison with untreated controls
Experimental: If not otherwise specified the test solutions were prepared as follows:
The active compound was dissolved at the desired concentration in a mixture of 1:1 (vol:vol) distilled water: acetone. The test solution was prepared at the day of use and in general at concentrations of ppm (wt/vol).
Potted cowpea plants colonized with 100-150 aphids of various stages were sprayed after the pest population had been recorded. Population reduction was assessed after 24, 72, and 120 hours.

[2] = system: Silverleaf Whitefly (Bemisia argentifolii, Adult); assay: Silverleaf whitefly test on sprayed cotton plants; conditions: 72 h, 3 days after treatment, read-out: mortality in comparison with untreated controls
Experimental: (§1) The active compounds were formulated in cyclohexanone as a 10,000 ppm solution supplied in 1.3 ml ABgene® tubes. These tubes were inserted into an automated electrostatic sprayer equipped with an atomizing nozzle and they served as stock solutions for which lower dilutions were made in 1:1 (vol:vol) water: acetone. A nonionic surfactant (Kinetic®) was included in the solution at a volume of 0.01% (v/v).
Cotton plants at the cotyledon stage (one plant per pot) were sprayed by an automated electrostatic plant sprayer equipped with an atomizing spray nozzle. The plants were dried in the sprayer fume hood and then removed from the sprayer. Each pot was placed into a plastic cup and 10 to 12 whitefly adults (approximately 3-5 days […]) were introduced. The insects were collected using an aspirator and 0.6 cm, nontoxic Tygon® tubing (R-3603) connected to a barrier pipette tip. The tip, containing the collected insects, was then gently inserted into the soil containing the treated plant, allowing insects to crawl out of the tip to reach the foliage for feeding. Cups were covered with a reusable screened lid (150-micron mesh polyester screen PeCap from Tetko, Inc.). Test plants were maintained in a growth room at 25° C. and 20-40% relative humidity for 3 days, avoiding direct exposure to fluorescent light (24 hour photoperiod) to prevent trapping of heat inside the cup. Mortality was assessed 3 days after treatment, compared to untreated control plants.

[3] = system: Vetch Aphid (Megoura viciae); assay: Vetch aphid bean leaf disk microtiter test; conditions: foliar, 144 h, leaf disks sprayed with 2.5 μl, 6 days, read-out: mortality in comparison with untreated controls
Experimental: The active compounds were formulated in 3:1 (vol:vol) water: DMSO with different concentrations of formulated compounds.
Bean leaf disks were placed into microtiterplates filled with 0.8% agar-agar and 2.5 ppm OPUS™. The leaf disks were sprayed with 2.5 μl of the test solution and 5 to 8 adult aphids were placed into the microtiter plates which were then closed and kept at 23±1° C. and 50±5% relative humidity under fluorescent light for 6 days. Mortality was assessed on the basis of vital, reproduced aphids. Aphid mortality and fecundity was then visually assessed.

[4] = system: Cotton Aphid (Aphis gossypii, Mixed Life Stages); assay: Cotton aphid spray test on infested cotton plants; conditions: 120 h, after 5 days, read-out: mortality in comparison with untreated controls
Experimental: as §1
Cotton plants at the cotyledon stage were infested with aphids prior to treatment by placing a heavily infested leaf from the main aphid colony on top of each cotyledon. Aphids were allowed to transfer overnight to accomplish an infestation of 80-100 aphids per plant and the host leaf was removed. The infested plants were then sprayed by an automated electrostatic plant sprayer equipped with an atomizing spray nozzle. The plants were dried in the sprayer fume hood, removed from the sprayer, and then maintained in a growth room under fluorescent lighting in a 24-hr photoperiod at 25° C. and 20-40% relative humidity. Aphid mortality on the treated plants, relative to mortality on untreated control plants, was determined after 5 days.

[5] = system: Green Peach Aphid (Myzus persicae); assay: Green peach aphid spray test on infested bell pepper plants; conditions: 120 h, after 5 days, read-out: mortality in comparison with untreated controls
Experimental: as §1
Bell pepper plants at the first true-leaf stage were infested prior to treatment by placing heavily infested leaves from the main colony on top of the treatment plants. Aphids were allowed to transfer overnight to accomplish an infestation of 30-50 aphids per plant and the host leaves were removed. The infested plants were then sprayed by an automated electrostatic plant sprayer equipped with an atomizing spray nozzle. The plants were dried in the sprayer fume hood, removed, and then maintained in a growth room under fluorescent lighting in a 24 hour photoperiod at 25° C. and 20-40% relative humidity. Aphid mortality on the treated plants, relative to mortality on untreated control plants, was determined after 5 days.

[6] = system: Orchid thrips (Dichromothrips corbetti); assay: Orchid thrips petal dip test; conditions: petals dipped, after 72 hours, read-out: mortality in comparison with untreated controls
Experimental: The active compounds were formulated as a 1:1 (vol:vol) water: acetone solution. Surfactant (Alkamuls EL 620) was added at the rate of 0.1% (vol/vol). Vanda orchids petals were cleaned, washed and air dried prior to spraying. Petals were dipped into the test solution for 3 seconds, air dried, placed inside a resealable plastic and inoculated with 20 adults. The treated petals were kept inside the […] room at 28-29° C. and relative humidity of 50-60%. Percent mortality was recorded after 72 hours.

COc1ccc2nc(-c3cccnc3)oc2c1 [I-1, 6-methoxy-2-(3-pyridyl)-1,3-benzoxazole]
≥ 75%: mortality at 500 ppm [1]

COc1ccc2nn(-c3cccnc3)cc2c1 [I-B4, 5-methoxy-2-(3-pyridyl)indazole]
≥ 75%: mortality at 300 ppm [2]

CCOCCSc1ccc2nn(-c3cccnc3)cc2c1 [I-B5, 5-(2-ethoxyethylsulfanyl)-2-(3-pyridyl)indazole]
≥ 75%: mortality at 500 ppm [1] | mortality at 800 ppm [3]

CCOCCSc1cccc2nn(-c3cccnc3)cc12 [I-C1, 4-(2-ethoxyethylsulfanyl)-2-(3-pyridyl)indazole]
≥ 75%: mortality at 500 ppm [1] | mortality at 300 ppm [4] | mortality at 300 ppm [2] | mortality at 800 ppm [3] | mortality at 300 ppm [5]

CCOCCSc1ccc2nn(-c3cccnc3)cc2n1 [I-D16, 5-(2-ethoxyethylsulfanyl)-2-(3-pyridyl)pyrazolo[4,3-b]pyridine]
≥ 75%: mortality at 300 ppm [4] | mortality at 800 ppm [3] | mortality at 300 ppm [5]

CCOCC[S+]([O-])c1ccc2nn(-c3cccnc3)cc2n1 (centres unmarked) [I-D39, 5-(2-ethoxyethylsulfinyl)-2-(3-pyridyl)pyrazolo[4,3-b]pyridine]
≥ 75%: mortality at 300 ppm [4] | mortality at 300 ppm [2] | mortality at 800 ppm [3] | mortality at 300 ppm [5]

CCOCCS(=O)(=O)c1ccc2nn(-c3cccnc3)cc2n1 [I-D46, 5-(2-ethoxyethylsulfonyl)-2-(3-pyridyl)pyrazolo[4,3-b]pyridine]
≥ 75%: mortality at 300 ppm [4] | mortality at 300 ppm [2] | mortality at 800 ppm [3] | mortality at 300 ppm [5]

COc1ccc2nn(-c3cccnc3)cc2n1 [I-D57, 5-methoxy-2-(3-pyridyl)pyrazolo[4,3-b]pyridine]
≥ 75%: mortality at 500 ppm [1] | mortality at 300 ppm [4] | mortality at 300 ppm [2] | mortality at 800 ppm [3] | mortality at 300 ppm [5]

CC(C)(COc1ccc2nn(-c3cccnc3)cc2n1)S(C)(=O)=O [I-D59, 5-(2-methyl-2-methylsulfonyl-propoxy)-2-(3-pyridyl)pyrazolo[4,3-b]pyridine]
≥ 75%: mortality at 500 ppm [1] | mortality at 300 ppm [4] | mortality at 300 ppm [2] | mortality at 800 ppm [3] | mortality at 300 ppm [5] | mortality at 500 ppm [6]

FC(F)(F)COc1ccc2nc(-c3cccnc3)cn2n1 [I-E14, 2-(3-pyridyl)-6-(2,2,2-trifluoroethoxy)imidazo[1,2-b]pyridazine]
≥ 75%: mortality at 300 ppm [4] | mortality at 300 ppm [2] | mortality at 800 ppm [3] | mortality at 300 ppm [5]

COc1ccc2nc(-c3cccnc3)sc2n1 [I-H4, 5-methoxy-2-(3-pyridyl)thiazolo[5,4-b]pyridine]
≥ 75%: mortality at 500 ppm [1]

COc1ccc2nc(-c3cccnc3)oc2n1 [I-K1, 5-methoxy-2-(3-pyridyl)oxazolo[5,4-b]pyridine]
≥ 75%: mortality at 500 ppm [1] | mortality at 300 ppm [4] | mortality at 300 ppm [2] | mortality at 800 ppm [3] | mortality at 300 ppm [5]
